Results reported in US11000033B2, “Ketone or oxime compound, and herbicide” (NISSAN CHEMICAL CORPORATION, priority 2014, dated 2021).

What was measured:
Format in all cases: in vivo
Apera spica-venti [1] = test: Test Example 5: herbicidal effect by foliage application, plastic box (symbol L); details: 320 g/ha, 3 weeks after application
How it was run: (§1)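 Herbicide, formulated as an emulsion and diluted in water, is sprayed onto the aerial parts of 14-day seedlings. These were grown at 25° C. to 30° C. in sterilized diluvial soil; effects are graded after 3 weeks.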

Setaria viridis = test: Test Example 5: herbicidal effect by foliage application, plastic box (symbol G); details: 320 g/ha, 3 weeks after application
How it was run: as §1

Amaranthus retroflexus = test: Test Example 5: herbicidal effect by foliage application, plastic box (symbol N); details: 320 g/ha, 3 weeks after application
How it was run: as §1

Lolium multiflorum Lam. = test: Test Example 5: herbicidal effect by foliage application, plastic box (symbol K); details: 320 g/ha, 3 weeks after application
How it was run: as §1

Digitaria ciliaris = test: Test Example 4: herbicidal effect by soil treatment (symbol F); details: application herbicide amount 320 g/ha
How it was run: (§2)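 Seeds were sown in sterilized diluvial soil, covered with about 1.5 cm of soil, and the soil surface was sprayed with a water-diluted emulsion of the compound at a predetermined rate. Plants grew in a greenhouse at 25° C. to 30° C.; effects were scored visually 3 weeks after application.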

Apera spica-venti [2] = test: Test Example 4: herbicidal effect by soil treatment (symbol L); details: application herbicide amount 320 g/ha
How it was run: as §2

Monochoria vaginalis [3] = test: Test Example 2: herbicidal activity, application during weed generation in submerged conditions (symbol C); details: Table 23; application herbicide amount 320 g/ha; grade 0-5 by criteria of Test Example 1
How it was run: (§3)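 Each pot contained alluvial soil under 4 cm of water with seeds of all three weeds sown together. Following growth at 25° C. to 30° C. to the one- to two-leaf stage, the floodwater received diluted emulsion at a predetermined amount; visual assessment followed at 3 weeks.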

[4] = tested on: Echinochloa crus-galli var. crus-galli; test: Test Example 4: herbicidal effect by soil treatment (symbol H); details: application herbicide amount 320 g/ha
How it was run: as §2

Veronica persica = test: Test Example 5: herbicidal effect by foliage application, plastic box (symbol R); details: 320 g/ha, 3 weeks after application
How it was run: as §1

rapeseed [5] = test: Test Example 4: effect on crop by soil treatment (symbol g); details: application herbicide amount 320 g/ha
How it was run: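 Plants are raised in a greenhouse (25° C. to 30° C.) from spot-sown seed, which sits under about 1.5 cm of sterilized diluvial soil in a box shared with weed species.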

rapeseed [6] = test: Test Example 5: effect on crop by foliage application, plastic box (symbol g); details: 320 g/ha, 3 weeks after application
How it was run: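 A greenhouse held between 25° C. and 30° C. was used to grow plants sown spot-wise, beneath ~1.5 cm of soil, in boxes of sterilized diluvial soil.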

Scirpus juncoides [7] = test: Test Example 1: herbicidal activity, application before weed generation in submerged conditions (symbol B); details: application herbicide amount 320 g/ha
How it was run: (§4)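 Application before weed emergence: an aqueous dilution of the emulsion formulation was poured onto the surface of 4 cm-deep floodwater on the day of sowing. Effect was judged after 3 weeks (greenhouse, 25–30 °C).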

Scirpus juncoides [8] = test: Test Example 2: herbicidal activity, application during weed generation in submerged conditions (symbol B); details: Table 23; application herbicide amount 320 g/ha; grade 0-5 by criteria of Test Example 1
How it was run: as §3

Monochoria vaginalis [9] = test: Test Example 1: herbicidal activity, application before weed generation in submerged conditions (symbol C); details: application herbicide amount 320 g/ha
How it was run: as §4

Structure (SMILES)	L: Apera spica-venti, herbicidal effect (criteria of Test Example 1) (Apera spica-venti [1])	G: Setaria viridis, herbicidal effect (criteria of Test Example 1) (Setaria viridis)	N: Amaranthus retroflexus, herbicidal effect (criteria of Test Example 1) (Amaranthus retroflexus)	K: Lolium multiflorum Lam., herbicidal effect (criteria of Test Example 1) (Lolium multiflorum Lam.)	F: Digitaria ciliaris, herbicidal effect grade (Digitaria ciliaris)	L: Apera spica-venti, herbicidal effect grade (Apera spica-venti [2])	Herbicidal effect grade, C: Monochoria vaginalis (Monochoria vaginalis [3])	H: Echinochloa crus-galli var. crus-galli, herbicidal effect grade [4]	R: Veronica persica, herbicidal effect (criteria of Test Example 1) (Veronica persica)	g: rapeseed, effect on crop grade (rapeseed [5])	g: rapeseed, effect on crop (criteria of Test Example 1) (rapeseed [6])	Herbicidal effect grade, B: Scirpus juncoides (Scirpus juncoides [7])	Herbicidal effect grade, B: Scirpus juncoides (Scirpus juncoides [8])	Herbicidal effect grade, C: Monochoria vaginalis (Monochoria vaginalis [9])	Herbicidal effect grade, F: Digitaria ciliaris (Digitaria ciliaris)	Herbicidal effect grade, L: Apera spica-venti (Apera spica-venti [2])	Herbicidal effect grade, H: Echinochloa crus-galli var. crus-galli [4]	Effect on crop grade, g: rapeseed (rapeseed [5])	further results
CON=C(C)CC1CC(O)=C(c2c(C)cc(Br)cc2OC)C1=O (stereo not shown) [6-076, 2-(4-bromo-2-methoxy-6-methylphenyl)-3-hydroxy-5-{2-(methoxyimino)propyl}cyclopent-2-enone]	5 (Herbicidal ratio of 90% or more (almost completely withered))	5 (Herbicidal ratio of 90% or more (almost completely withered))	1 (Herbicidal ratio of 5% or higher and lower than 20%)	5 (Herbicidal ratio of 90% or more (almost completely withered))	5 (Herbicidal ratio of 90% or more (almost completely withered))	5 (Herbicidal ratio of 90% or more (almost completely withered))	1 (Herbicidal ratio of 5% or higher and lower than 20%)	5 (Herbicidal ratio of 90% or more (almost completely withered))	2 (Herbicidal ratio of 20% or higher and lower than 40%)	2 (Herbicidal ratio of 20% or higher and lower than 40%)	4 (Herbicidal ratio of 70% or higher and lower than 90%)	3 (Herbicidal ratio of 40% or higher and lower than 70%)	1 (Herbicidal ratio of 5% or higher and lower than 20%)	2 (Herbicidal ratio of 20% or higher and lower than 40%)	–	–	–	–	–
CC(=O)CC1CC(O)=C(c2c(C)cc(OCc3ccccc3)cc2C)C1=O (stereo not shown) [7-018]	2 (Herbicidal ratio of 20% or higher and lower than 40%)	4 (Herbicidal ratio of 70% or higher and lower than 90%)	0 (Herbicidal ratio of 5% or lower (almost no effect))	2 (Herbicidal ratio of 20% or higher and lower than 40%)	–	–	0 (Herbicidal ratio of 5% or lower (almost no effect))	–	0 (Herbicidal ratio of 5% or lower (almost no effect))	–	0 (Herbicidal ratio of 5% or lower (almost no effect))	0 (Herbicidal ratio of 5% or lower (almost no effect))	0 (Herbicidal ratio of 5% or lower (almost no effect))	0 (Herbicidal ratio of 5% or lower (almost no effect))	3 (Herbicidal ratio of 40% or higher and lower than 70%)	0 (Herbicidal ratio of 5% or lower (almost no effect))	0 (Herbicidal ratio of 5% or lower (almost no effect))	0 (Herbicidal ratio of 5% or lower (almost no effect))	–
CON=C(C)CC1CC(O)=C(c2c(C)cc(-c3ccc(OC(F)(F)F)cc3)cc2C)C1=O (mixture of isomers) [6-056]	3 (Herbicidal ratio of 40% or higher and lower than 70%)	5 (Herbicidal ratio of 90% or more (almost completely withered))	0 (Herbicidal ratio of 5% or lower (almost no effect))	4 (Herbicidal ratio of 70% or higher and lower than 90%)	0 (Herbicidal ratio of 5% or lower (almost no effect))	0 (Herbicidal ratio of 5% or lower (almost no effect))	0 (Herbicidal ratio of 5% or lower (almost no effect))	0 (Herbicidal ratio of 5% or lower (almost no effect))	0 (Herbicidal ratio of 5% or lower (almost no effect))	0 (Herbicidal ratio of 5% or lower (almost no effect))	3 (Herbicidal ratio of 40% or higher and lower than 70%)	0 (Herbicidal ratio of 5% or lower (almost no effect))	0 (Herbicidal ratio of 5% or lower (almost no effect))	0 (Herbicidal ratio of 5% or lower (almost no effect))	–	–	–	–	–
CC(=O)CC1CC(O)=C(c2c(C)cc(-c3ccc(C)cc3)cc2C)C1=O (stereo not shown) [7-007]	5 (Herbicidal ratio of 90% or more (almost completely withered))	5 (Herbicidal ratio of 90% or more (almost completely withered))	0 (Herbicidal ratio of 5% or lower (almost no effect))	5 (Herbicidal ratio of 90% or more (almost completely withered))	–	–	3 (Herbicidal ratio of 40% or higher and lower than 70%)	–	0 (Herbicidal ratio of 5% or lower (almost no effect))	–	0 (Herbicidal ratio of 5% or lower (almost no effect))	1 (Herbicidal ratio of 5% or higher and lower than 20%)	0 (Herbicidal ratio of 5% or lower (almost no effect))	3 (Herbicidal ratio of 40% or higher and lower than 70%)	4 (Herbicidal ratio of 70% or higher and lower than 90%)	5 (Herbicidal ratio of 90% or more (almost completely withered))	5 (Herbicidal ratio of 90% or more (almost completely withered))	0 (Herbicidal ratio of 5% or lower (almost no effect))	–
CON=C(C)CC1CC(O)=C(c2c(C)cc(-c3ccccn3)cc2C)C1=O (mixture of isomers) [6-051]	–	–	–	–	5 (Herbicidal ratio of 90% or more (almost completely withered))	5 (Herbicidal ratio of 90% or more (almost completely withered))	2 (Herbicidal ratio of 20% or higher and lower than 40%)	5 (Herbicidal ratio of 90% or more (almost completely withered))	–	4 (Herbicidal ratio of 70% or higher and lower than 90%)	–	4 (Herbicidal ratio of 70% or higher and lower than 90%)	4 (Herbicidal ratio of 70% or higher and lower than 90%)	2 (Herbicidal ratio of 20% or higher and lower than 40%)	–	–	–	–	L: Apera spica-venti, herbicidal effect grade (Apera spica-venti [1]): 5 (Herbicidal ratio of 90% or more (almost completely withered)); G: Setaria viridis, herbicidal effect grade (Setaria viridis): 5 (Herbicidal ratio of 90% or more (almost completely withered)); N: Amaranthus retroflexus, herbicidal effect grade (Amaranthus retroflexus): 3 (Herbicidal ratio of 40% or higher and lower than 70%); K: Lolium multiflorum Lam., herbicidal effect grade (Lolium multiflorum Lam.): 5 (Herbicidal ratio of 90% or more (almost completely withered)); R: Veronica persica, herbicidal effect grade (Veronica persica): 4 (Herbicidal ratio of 70% or higher and lower than 90%); g: rapeseed, effect on crop grade (rapeseed [6]): 5 (Herbicidal ratio of 90% or more (almost completely withered))
